{"source": "patent US10183943B2", "about": "“Heterocyclic compounds and their use in preventing or treating bacterial infections” (MUTABILIS, priority 2015, dated 2019)", "key": {"TEM-1": {"molecular_target": "T1, TEM-1 (Escherichia coli, UniProt P62593)", "T1 construct": "made in house; host or cells: E. coli", "T1 sequence (P62593 24-286 limits assumed)": "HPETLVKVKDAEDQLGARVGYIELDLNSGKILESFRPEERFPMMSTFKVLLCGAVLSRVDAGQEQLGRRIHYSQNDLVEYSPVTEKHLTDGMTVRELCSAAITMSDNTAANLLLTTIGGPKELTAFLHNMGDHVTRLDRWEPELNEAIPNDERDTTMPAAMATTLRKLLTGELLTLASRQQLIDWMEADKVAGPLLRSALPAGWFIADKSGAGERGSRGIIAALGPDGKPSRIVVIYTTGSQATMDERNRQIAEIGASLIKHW", "assay": "β-lactamase inhibitory activity, determination of IC50 (nitrocefin hydrolysis)", "assay_type": "biochemical", "conditions": "class (A); nitrocefin 200 μM, 30 min pre-incubation; read-out: IC50 β-lactamase TEM-1"}, "SHV-1": {"molecular_target": "T2, SHV-1 (Klebsiella pneumoniae, UniProt P0AD64)", "T2 construct": "made in house; host or cells: E. coli", "T2 sequence (P0AD64 22-286)": "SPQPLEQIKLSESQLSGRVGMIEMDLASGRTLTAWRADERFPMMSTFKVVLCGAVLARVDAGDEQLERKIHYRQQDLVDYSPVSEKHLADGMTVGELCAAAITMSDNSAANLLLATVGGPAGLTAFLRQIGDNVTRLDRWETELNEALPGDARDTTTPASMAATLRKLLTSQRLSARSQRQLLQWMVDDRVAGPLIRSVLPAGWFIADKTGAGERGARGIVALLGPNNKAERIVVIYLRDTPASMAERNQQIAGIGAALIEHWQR", "assay": "β-lactamase inhibitory activity, determination of IC50 (nitrocefin hydrolysis)", "assay_type": "biochemical", "conditions": "class (A); nitrocefin 200 μM, 30 min pre-incubation; read-out: IC50 β-lactamase SHV-1"}, "CTX-M-15": {"molecular_target": "T3, CTX-M-15 (Escherichia coli, UniProt Q9EXV5)", "T3 construct": "made in house; host or cells: E. coli", "T3 sequence (Q9EXV5 entry or part of it)": "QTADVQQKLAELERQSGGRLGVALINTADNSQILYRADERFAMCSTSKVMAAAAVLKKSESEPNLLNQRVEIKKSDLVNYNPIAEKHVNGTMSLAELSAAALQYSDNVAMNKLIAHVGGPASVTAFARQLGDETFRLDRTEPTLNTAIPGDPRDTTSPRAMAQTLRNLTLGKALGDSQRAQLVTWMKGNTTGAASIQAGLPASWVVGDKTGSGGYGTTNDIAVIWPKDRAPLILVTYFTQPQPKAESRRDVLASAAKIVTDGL", "assay": "β-lactamase inhibitory activity, determination of IC50 (nitrocefin hydrolysis)", "assay_type": "biochemical", "conditions": "class (A); nitrocefin 200 μM, 30 min pre-incubation; read-out: IC50 β-lactamase CTX-M-15"}, "KPC-2": {"molecular_target": "T4, KPC-2 (Klebsiella pneumoniae, UniProt Q9F663)", "T4 construct": "made in house; host or cells: E. coli", "T4 sequence (Q9F663 25-293 limits assumed)": "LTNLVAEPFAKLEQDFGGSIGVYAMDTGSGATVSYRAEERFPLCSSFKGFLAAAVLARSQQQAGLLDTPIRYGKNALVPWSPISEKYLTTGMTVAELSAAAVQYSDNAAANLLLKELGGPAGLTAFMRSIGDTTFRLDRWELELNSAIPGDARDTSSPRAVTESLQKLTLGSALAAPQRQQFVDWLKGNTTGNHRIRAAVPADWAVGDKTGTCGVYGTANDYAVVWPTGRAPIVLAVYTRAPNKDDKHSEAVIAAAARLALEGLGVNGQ", "assay": "β-lactamase inhibitory activity, determination of IC50 (nitrocefin hydrolysis)", "assay_type": "biochemical", "conditions": "class (A); nitrocefin 200 μM, 30 min pre-incubation; read-out: IC50 β-lactamase KPC-2"}, "[1]": {"molecular_target": "CMY-37 (Citrobacter freundii)", "sequence (A0A9R8 21-381)": "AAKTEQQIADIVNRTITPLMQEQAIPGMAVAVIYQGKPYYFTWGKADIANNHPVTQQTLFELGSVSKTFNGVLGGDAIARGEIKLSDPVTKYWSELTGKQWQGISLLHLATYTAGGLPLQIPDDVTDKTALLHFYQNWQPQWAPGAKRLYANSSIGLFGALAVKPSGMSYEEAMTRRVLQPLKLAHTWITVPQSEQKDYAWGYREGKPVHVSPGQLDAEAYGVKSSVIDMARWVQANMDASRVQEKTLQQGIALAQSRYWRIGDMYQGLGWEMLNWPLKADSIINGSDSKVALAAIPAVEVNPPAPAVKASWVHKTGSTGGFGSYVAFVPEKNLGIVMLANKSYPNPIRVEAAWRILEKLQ", "assay": "β-lactamase inhibitory activity, determination of IC50 (nitrocefin hydrolysis)", "assay_type": "biochemical", "conditions": "class (C); nitrocefin 200 μM, 30 min pre-incubation"}, "OXA-1": {"molecular_target": "T5, OXA-1 (Escherichia coli, UniProt P13661)", "T5 construct": "made in house; host or cells: E. coli", "T5 sequence (P13661 26-276)": "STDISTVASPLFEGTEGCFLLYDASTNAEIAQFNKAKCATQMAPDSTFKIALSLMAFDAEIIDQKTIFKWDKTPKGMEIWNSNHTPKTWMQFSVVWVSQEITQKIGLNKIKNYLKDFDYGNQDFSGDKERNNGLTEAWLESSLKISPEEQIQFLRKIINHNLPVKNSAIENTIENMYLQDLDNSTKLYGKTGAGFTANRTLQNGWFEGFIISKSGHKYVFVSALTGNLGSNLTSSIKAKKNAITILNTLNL", "assay": "β-lactamase inhibitory activity, determination of IC50 (nitrocefin hydrolysis)", "assay_type": "biochemical", "conditions": "class (D); nitrocefin 200 μM, 30 min pre-incubation; read-out: IC50 β-lactamase OXA-1"}, "OXA-11": {"molecular_target": "T6, OXA-11 (Pseudomonas aeruginosa, UniProt Q06778)", "T6 construct": "made in house; host or cells: E. coli", "T6 sequence (Q06778 21-266)": "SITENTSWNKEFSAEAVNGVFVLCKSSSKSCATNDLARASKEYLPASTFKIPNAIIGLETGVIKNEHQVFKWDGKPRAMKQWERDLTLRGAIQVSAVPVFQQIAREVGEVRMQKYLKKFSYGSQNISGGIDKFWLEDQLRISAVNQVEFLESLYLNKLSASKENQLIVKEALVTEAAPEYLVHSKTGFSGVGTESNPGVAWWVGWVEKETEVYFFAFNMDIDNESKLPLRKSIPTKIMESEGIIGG", "assay": "β-lactamase inhibitory activity, determination of IC50 (nitrocefin hydrolysis)", "assay_type": "biochemical", "conditions": "class (D); nitrocefin 200 μM, 30 min pre-incubation; read-out: IC50 β-lactamase OXA-11"}, "OXA-15": {"molecular_target": "T7, OXA-15 (Pseudomonas aeruginosa, UniProt Q51574)", "T7 construct": "made in house; host or cells: E. coli", "T7 sequence (Q51574 22-275)": "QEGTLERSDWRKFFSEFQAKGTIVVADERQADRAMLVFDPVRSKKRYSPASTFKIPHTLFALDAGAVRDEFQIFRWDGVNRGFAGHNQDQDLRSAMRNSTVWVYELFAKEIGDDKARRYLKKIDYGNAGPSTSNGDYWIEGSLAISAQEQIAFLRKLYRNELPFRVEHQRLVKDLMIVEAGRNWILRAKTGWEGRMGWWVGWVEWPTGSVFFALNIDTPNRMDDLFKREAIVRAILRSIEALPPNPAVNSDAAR", "assay": "biochemical", "conditions": "class (D); nitrocefin 200 μM, 30 min pre-incubation; read-out: IC50 β-lactamase OXA-15"}, "OXA-48": {"molecular_target": "T8, OXA-48 (Klebsiella pneumoniae, UniProt Q6XEC0)", "T8 construct": "made in house; host or cells: E. coli", "T8 sequence (Q6XEC0 23-265 limits assumed)": "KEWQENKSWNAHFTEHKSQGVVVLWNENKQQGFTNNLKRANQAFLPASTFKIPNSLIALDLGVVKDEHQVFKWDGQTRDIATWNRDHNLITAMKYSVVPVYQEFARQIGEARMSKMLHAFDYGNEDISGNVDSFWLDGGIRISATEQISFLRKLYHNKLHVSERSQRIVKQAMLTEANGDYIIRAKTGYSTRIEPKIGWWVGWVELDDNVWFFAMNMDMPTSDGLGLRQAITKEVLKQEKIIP", "assay": "β-lactamase inhibitory activity, determination of IC50 (nitrocefin hydrolysis)", "assay_type": "biochemical", "conditions": "class (D); nitrocefin 200 μM, 30 min pre-incubation; read-out: IC50 β-lactamase OXA-48"}, "E. cloacae P99 (AmpC) [2]": {"tested_on": "E. cloacae P99 (AmpC)", "assay": "MIC of compounds alone, broth microdilution", "assay_type": "cell-based", "conditions": "strain P99 (E. cloacae)", "how_it_was_run": "(§1)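 Broth microdilution per CLSI M7-A7: compounds alone, in DMSO, challenged with log-phase bacteria at 5×10^5 cfu/mL in cation-adjusted Mueller-Hinton broth. Plates incubated 16-20 h at 35° C in ambient air; MIC is the lowest concentration preventing visible growth.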"}, "[3]": {"tested_on": "E. coli 131119 (TEM-1, OXA-48)", "assay": "MIC of compounds alone, broth microdilution", "assay_type": "cell-based", "conditions": "strain 131119 (E. coli)", "how_it_was_run": "as §1"}, "[4]": {"tested_on": "E. coli 190317 (TEM-1, SHV-12, CTX-M-15, OXA-1)", "assay": "MIC of compounds alone, broth microdilution", "assay_type": "cell-based", "conditions": "strain 190317 (E. coli)", "how_it_was_run": "as §1"}, "E. coli RGN238 (OXA-1)": {"tested_on": "E. coli RGN238 (OXA-1)", "assay": "MIC of compounds alone, broth microdilution", "assay_type": "cell-based", "conditions": "strain RGN238 (E. coli)", "how_it_was_run": "as §1"}, "[5]": {"tested_on": "K. pneumoniae 6299 (TEM-1, SHV-11, OXA-163)", "assay": "MIC of compounds alone, broth microdilution", "assay_type": "cell-based", "conditions": "strain 6299 (K. pneumoniae)", "how_it_was_run": "as §1"}, "[6]": {"tested_on": "K. pneumoniae BAA-1898 (TEM-1, SHV-11, SHV-12, KPC-2)", "assay": "MIC of compounds alone, broth microdilution", "assay_type": "cell-based", "conditions": "strain BAA-1898 (K. pneumoniae)", "how_it_was_run": "as §1"}, "[7]": {"tested_on": "P. aeruginosa CIP107051 (TEM-24)", "assay": "MIC of compounds alone, broth microdilution", "assay_type": "cell-based", "conditions": "strain CIP107051 (P. aeruginosa)", "how_it_was_run": "as §1"}, "E. cloacae P99 (AmpC) [8]": {"tested_on": "E. cloacae P99 (AmpC)", "assay": "MIC of ceftazidime (CAZ) in combination with compounds at 4 μg/mL, broth microdilution", "assay_type": "cell-based", "conditions": "strain P99; MIC of CAZ with compound fixed at 4 μg/mL", "procedure": "(§2) Method 2: MIC of Compounds and Synergy with Ceftazidime Against Bacterial Isolates (Table 2 and 3)\n(§3) Compounds of the present invention were assessed against genotyped bacterial strains alone or in combination with the β-lactam ceftazidime (CAZ). In the assays, MICs of said compounds, or of ceftazidime at fixed concentrations of said compounds were determined by the broth microdilution method according to the Clinical Laboratory Standards Institute (CLSI-M7-A7). Briefly, compounds alone according to the invention were prepared in DMSO and spotted (2 μL each) on sterile polystyrene plates (Corning, 3788). Compounds and ceftazidime dilutions were prepared in DMSO and spotted (1 μL each) on sterile polystyrene plates (Corning, 3788). Log phase bacterial suspensions were adjusted to a final density of 5×10^5 cfu/mL in cation-adjusted Mueller-Hinton broth (Becton-Dickinson) and added to each well (98 μL). Microplates were incubated for 16-20 h at 35° C. in ambient air. The MIC of the compounds was defined as the lowest concentration of said compounds that prevented bacterial growth as read by visual inspection. The MIC of ceftazidime at each compound concentration was defined as the lowest concentration of ceftazidime that prevented bacterial growth as read by visual inspection."}, "[9]": {"tested_on": "K. pneumoniae 6299 (TEM-1, SHV-11, OXA-163)", "assay": "MIC of ceftazidime (CAZ) in combination with compounds at 4 μg/mL, broth microdilution", "assay_type": "cell-based", "conditions": "strain 6299; MIC of CAZ with compound fixed at 4 μg/mL", "procedure": "as §2, §3"}, "[10]": {"tested_on": "K. pneumoniae BAA-1898 (TEM-1, SHV-11, SHV-12, KPC-2)", "assay": "MIC of ceftazidime (CAZ) in combination with compounds at 4 μg/mL, broth microdilution", "assay_type": "cell-based", "conditions": "strain BAA-1898; MIC of CAZ with compound fixed at 4 μg/mL", "procedure": "as §2, §3"}, "[11]": {"tested_on": "P. aeruginosa CIP107051 (TEM-24)", "assay": "MIC of ceftazidime (CAZ) in combination with compounds at 4 μg/mL, broth microdilution", "assay_type": "cell-based", "conditions": "strain CIP107051; MIC of CAZ with compound fixed at 4 μg/mL", "procedure": "as §2, §3"}, "[12]": {"tested_on": "E. coli 190317 (TEM-1, SHV-12, CTX-M-15, OXA-1)", "assay": "microbe, parasite or virus in culture", "assay_type": "cell-based", "conditions": "strain 190317; MIC of CAZ with compound fixed at 4 μg/mL", "procedure": "as §2, §3"}, "AmpC (P99)": {"molecular_target": "AmpC (P99) (Enterobacter cloacae, UniProt P05364)", "sequence (P05364 21-381)": "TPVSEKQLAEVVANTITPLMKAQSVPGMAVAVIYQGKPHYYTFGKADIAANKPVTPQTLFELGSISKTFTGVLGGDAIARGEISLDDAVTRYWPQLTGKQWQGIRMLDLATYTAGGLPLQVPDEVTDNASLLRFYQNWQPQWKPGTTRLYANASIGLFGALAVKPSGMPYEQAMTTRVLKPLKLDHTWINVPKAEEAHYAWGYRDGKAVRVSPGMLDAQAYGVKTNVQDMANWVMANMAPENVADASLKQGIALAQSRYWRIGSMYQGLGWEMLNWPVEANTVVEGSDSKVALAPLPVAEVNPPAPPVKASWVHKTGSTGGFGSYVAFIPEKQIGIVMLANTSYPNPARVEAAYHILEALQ", "assay": "β-lactamase inhibitory activity, determination of IC50 (nitrocefin hydrolysis)", "conditions": "read-out: IC50 β-lactamase AmpC (P99); class (C); nitrocefin 200 μM, 30 min pre-incubation"}, "AmpC P. aeruginosa": {"molecular_target": "AmpC P. aeruginosa (Pseudomonas aeruginosa, UniProt P24735)", "sequence (P24735 27-397)": "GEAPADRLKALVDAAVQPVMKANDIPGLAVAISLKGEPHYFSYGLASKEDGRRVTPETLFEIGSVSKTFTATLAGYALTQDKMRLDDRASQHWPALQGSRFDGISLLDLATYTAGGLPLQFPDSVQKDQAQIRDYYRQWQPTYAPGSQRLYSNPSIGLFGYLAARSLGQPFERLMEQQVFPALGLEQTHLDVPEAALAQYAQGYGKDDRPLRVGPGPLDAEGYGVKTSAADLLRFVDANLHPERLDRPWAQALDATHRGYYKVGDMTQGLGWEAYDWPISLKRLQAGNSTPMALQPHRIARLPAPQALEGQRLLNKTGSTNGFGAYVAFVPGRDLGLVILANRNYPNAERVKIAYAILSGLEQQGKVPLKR", "assay": "β-lactamase inhibitory activity, determination of IC50 (nitrocefin hydrolysis)", "conditions": "read-out: IC50 β-lactamase AmpC (PAE); class (C); nitrocefin 200 μM, 30 min pre-incubation"}}, "data": [{"smiles": "COC(=O)c1ncsc1C1=CCN2CC1N(OS(=O)(=O)[O-])C2=O.[Na+]", "note": "(centres unmarked) [Example 22, Sodium [4-(4-(2-methoxy-2-oxo-methyl)-thiazol-5-yl)-7-oxo-1,6-diazabicyclo[3.2.1]oct-3-en-6-yl] sulfate]", "values": [{"measurement": "IC50", "setting": "TEM-1", "value": 5, "unit": "nM"}, {"measurement": "IC50", "setting": "SHV-1", "value": 19, "unit": "nM"}, {"measurement": "IC50", "setting": "CTX-M-15", "value": 6.5, "unit": "nM"}, {"measurement": "IC50", "setting": "KPC-2", "value": 340, "unit": "nM"}, {"measurement": "IC50", "setting": "[1]", "value": 84, "unit": "nM"}, {"measurement": "IC50", "setting": "OXA-1", "value": 68, "unit": "nM"}, {"measurement": "IC50", "setting": "OXA-11", "value": 370, "unit": "nM"}, {"measurement": "IC50", "setting": "OXA-15", "value": 12, "unit": "nM"}, {"measurement": "IC50", "setting": "OXA-48", "value": 3.9, "unit": "nM"}, {"measurement": "MIC compounds of the invention alone", "setting": "E. cloacae P99 (AmpC) [2]", "value": ">32", "unit": "µg/mL"}, {"measurement": "MIC compounds of the invention alone", "setting": "[3]", "value": ">32", "unit": "µg/mL"}, {"measurement": "MIC compounds of the invention alone", "setting": "[4]", "value": ">32", "unit": "µg/mL"}, {"measurement": "MIC compounds of the invention alone", "setting": "E. coli RGN238 (OXA-1)", "value": ">32", "unit": "µg/mL"}, {"measurement": "MIC compounds of the invention alone", "setting": "[5]", "value": ">32", "unit": "µg/mL"}, {"measurement": "MIC compounds of the invention alone", "setting": "[6]", "value": ">32", "unit": "µg/mL"}, {"measurement": "MIC compounds of the invention alone", "setting": "[7]", "value": ">32", "unit": "µg/mL"}, {"measurement": "MIC combination of CAZ and compounds of the invention at 4 μg/mL", "setting": "E. cloacae P99 (AmpC) [8]", "value": 128, "unit": "µg/mL"}, {"measurement": "MIC combination of CAZ and compounds of the invention at 4 μg/mL", "setting": "[9]", "value": 128, "unit": "µg/mL"}, {"measurement": "MIC combination of CAZ and compounds of the invention at 4 μg/mL", "setting": "[10]", "value": 128, "unit": "µg/mL"}, {"measurement": "MIC combination of CAZ and compounds of the invention at 4 μg/mL", "setting": "[11]", "value": ">128", "unit": "µg/mL"}, {"measurement": "MIC combination of CAZ and compounds of the invention at 4 μg/mL", "setting": "[12]", "value": 16, "unit": "µg/mL"}, {"measurement": "IC50", "setting": "AmpC (P99)", "value": 160, "unit": "nM"}, {"measurement": "IC50", "setting": "AmpC P. aeruginosa", "value": 5500, "unit": "nM"}]}]}
